Results reported in patent US10246712B2, “Genetic or pharmacological reduction of PERK enhances cortical- and hippocampus-dependent cognitive function” (Carmel-Haifa University Economic Corp. Ltd, priority 2015, dated 2019).

Columns and labels:
p-eIF2α = experiment: Immunoblot of p-eIF2α levels in CA1 punches; assay type: in vivo, mouse; settings: CA1 punches after 100 nM infusion into CA1, adult mice; vs vehicle
PERK [1] = target: T1, PERK (Mus musculus, UniProt Q9Z2B5); assay type: in vivo
T1 construct: from tissue; host or cells: CA1 region of the hippocampus of C57BL/6 mice, in vivo
T1 sequence (Q9Z2B5 29-1114): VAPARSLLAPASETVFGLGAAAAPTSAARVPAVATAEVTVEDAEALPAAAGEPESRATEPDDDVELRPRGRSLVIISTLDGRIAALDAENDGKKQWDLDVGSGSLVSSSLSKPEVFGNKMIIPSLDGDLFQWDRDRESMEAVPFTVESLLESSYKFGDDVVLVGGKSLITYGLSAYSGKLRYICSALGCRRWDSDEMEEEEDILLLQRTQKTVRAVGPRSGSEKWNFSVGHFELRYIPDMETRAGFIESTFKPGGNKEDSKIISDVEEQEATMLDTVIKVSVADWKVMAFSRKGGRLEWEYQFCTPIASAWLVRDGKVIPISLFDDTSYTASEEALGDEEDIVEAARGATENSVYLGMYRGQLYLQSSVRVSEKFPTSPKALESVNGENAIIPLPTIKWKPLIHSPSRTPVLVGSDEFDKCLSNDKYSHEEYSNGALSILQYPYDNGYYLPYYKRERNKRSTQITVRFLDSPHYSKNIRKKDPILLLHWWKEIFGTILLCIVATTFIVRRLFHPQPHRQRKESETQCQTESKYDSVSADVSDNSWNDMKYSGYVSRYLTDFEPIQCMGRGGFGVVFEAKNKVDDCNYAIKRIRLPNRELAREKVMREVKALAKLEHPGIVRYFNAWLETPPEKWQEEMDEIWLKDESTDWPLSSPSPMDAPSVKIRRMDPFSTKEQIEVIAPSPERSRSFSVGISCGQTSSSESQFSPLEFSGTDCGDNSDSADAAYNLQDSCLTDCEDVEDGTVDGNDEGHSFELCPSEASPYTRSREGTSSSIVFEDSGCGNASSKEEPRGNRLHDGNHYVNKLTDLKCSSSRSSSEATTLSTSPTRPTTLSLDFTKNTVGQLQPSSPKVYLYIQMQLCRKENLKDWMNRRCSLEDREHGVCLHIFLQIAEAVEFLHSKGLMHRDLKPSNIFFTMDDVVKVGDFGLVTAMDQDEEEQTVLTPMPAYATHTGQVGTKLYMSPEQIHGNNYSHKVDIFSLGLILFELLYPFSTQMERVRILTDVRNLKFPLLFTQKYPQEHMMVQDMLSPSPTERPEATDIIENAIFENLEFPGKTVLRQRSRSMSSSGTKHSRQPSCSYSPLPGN
Excerpt: Animals were anesthetized under 2% isoflurane using an isoflurane table top unit (HME109, Highland Medical Equipment). Under aseptic conditions, a rodent stereotaxic apparatus (Kopf Stereotaxic Alignment System Model 1900) with continuous 1% isoflurane anesthesia was used. For CA1 infusion cannula was implanted bilaterally into the CA1 region (from the bregma: −1.94 mm AP, ±1.0 mm ML, −1.0 mm DV). The implanted cannula was cemented on the skull. Each cannula was fitted with a 28 gauge dummy cannula that extended 0.1 mm beyond the tip of the guide cannula to prevent blockage of the guide cannula. After cannulation, mice were allowed to recover for 7 days before infusion of PERK inhibitor or vehicle and behavior. On conditioning day, randomly assigned mice were infused with 100 nM PERK inhibitor GSK2606414 (Axten et al., 2012) dissolved in dimethyl sulfoxide (DMSO) and further diluted in saline to a final DMSO concentration of 0.5%, via a 28-gauge infusion cannula connected by polyethylene (PE 20) tubing to a 10 μL Hamilton microsyringe (Hamilton Company). The infusion cannula protruded 0.25 mm beyond the guide cannula. For CA1 administration, infusion volume of 1 μl of 100 nM GSK2606414 or vehicle was delivered using a Harvard PHD2000 syringe pump (Harvard Apparatus) over the course of 1 min (at a rate of 1 μL/min). After infusion, the injection cannula was kept in the guide cannula for an additional minute to minimize dragging of infused solutes along the injection tract. Locations of cannula were verified in 30 μm coronal sections.
Model chambers measuring 25×25×25 cm internally (Panlab, Harvard Apparatus) were located inside a larger, insulated plastic cabinet that excluded external light and noise. For the trace fear conditioning protocol, mice were placed in a chamber (with light [20 W bulb] and a 16 bar metal grid floor) for 120 s, after which the mice received a 2.9 kHz tone, applied for 20 s at 80 dB (conditioned stimulus) and a 0.5 mA footshock applied for 2 s (unconditioned stimulus) 20 s following the end of the conditioned stimulus. This protocol was repeated 5 times, where each tone-shock presentation was separated by a 2-minute interval. After administration of the last shock, animals remained in the chamber for 2 minutes before they were taken back to the home cage. The chambers were cleaned with 10% ethanol between successive sets of mice. Animals from control and treatment groups were randomized between the 4 different chambers.

PERK [2] = assay type: in vivo, mouse; settings: CA1 punches after 100 nM infusion into CA1; vs vehicle
Excerpt: Animals were anesthetized under 2% isoflurane using an isoflurane table top unit (HME109, Highland Medical Equipment). Under aseptic conditions, a rodent stereotaxic apparatus (Kopf Stereotaxic Alignment System Model 1900) with continuous 1% isoflurane anesthesia was used. For CA1 infusion cannula was implanted bilaterally into the CA1 region (from the bregma: −1.94 mm AP, ±1.0 mm ML, −1.0 mm DV). The implanted cannula was cemented on the skull. Each cannula was fitted with a 28 gauge dummy cannula that extended 0.1 mm beyond the tip of the guide cannula to prevent blockage of the guide cannula. After cannulation, mice were allowed to recover for 7 days before infusion of PERK inhibitor or vehicle and behavior. On conditioning day, randomly assigned mice were infused with 100 nM PERK inhibitor GSK2606414 (Axten et al., 2012) dissolved in dimethyl sulfoxide (DMSO) and further diluted in saline to a final DMSO concentration of 0.5%, via a 28-gauge infusion cannula connected by polyethylene (PE 20) tubing to a 10 μL Hamilton microsyringe (Hamilton Company). The infusion cannula protruded 0.25 mm beyond the guide cannula. For CA1 administration, infusion volume of 1 μl of 100 nM GSK2606414 or vehicle was delivered using a Harvard PHD2000 syringe pump (Harvard Apparatus) over the course of 1 min (at a rate of 1 μL/min). […]

PERK [3] = target: T2, PERK (Rattus norvegicus, UniProt Q9Z1Z1); assay type: in vivo
T2 construct: the PERK shRNA lentivirus was stereotacticaly injected to the IC of adult rats; from tissue; host or cells: insular cortex of adult male Wistar Hola rats, in vivo
T2 sequence (Q9Z1Z1 28-1108): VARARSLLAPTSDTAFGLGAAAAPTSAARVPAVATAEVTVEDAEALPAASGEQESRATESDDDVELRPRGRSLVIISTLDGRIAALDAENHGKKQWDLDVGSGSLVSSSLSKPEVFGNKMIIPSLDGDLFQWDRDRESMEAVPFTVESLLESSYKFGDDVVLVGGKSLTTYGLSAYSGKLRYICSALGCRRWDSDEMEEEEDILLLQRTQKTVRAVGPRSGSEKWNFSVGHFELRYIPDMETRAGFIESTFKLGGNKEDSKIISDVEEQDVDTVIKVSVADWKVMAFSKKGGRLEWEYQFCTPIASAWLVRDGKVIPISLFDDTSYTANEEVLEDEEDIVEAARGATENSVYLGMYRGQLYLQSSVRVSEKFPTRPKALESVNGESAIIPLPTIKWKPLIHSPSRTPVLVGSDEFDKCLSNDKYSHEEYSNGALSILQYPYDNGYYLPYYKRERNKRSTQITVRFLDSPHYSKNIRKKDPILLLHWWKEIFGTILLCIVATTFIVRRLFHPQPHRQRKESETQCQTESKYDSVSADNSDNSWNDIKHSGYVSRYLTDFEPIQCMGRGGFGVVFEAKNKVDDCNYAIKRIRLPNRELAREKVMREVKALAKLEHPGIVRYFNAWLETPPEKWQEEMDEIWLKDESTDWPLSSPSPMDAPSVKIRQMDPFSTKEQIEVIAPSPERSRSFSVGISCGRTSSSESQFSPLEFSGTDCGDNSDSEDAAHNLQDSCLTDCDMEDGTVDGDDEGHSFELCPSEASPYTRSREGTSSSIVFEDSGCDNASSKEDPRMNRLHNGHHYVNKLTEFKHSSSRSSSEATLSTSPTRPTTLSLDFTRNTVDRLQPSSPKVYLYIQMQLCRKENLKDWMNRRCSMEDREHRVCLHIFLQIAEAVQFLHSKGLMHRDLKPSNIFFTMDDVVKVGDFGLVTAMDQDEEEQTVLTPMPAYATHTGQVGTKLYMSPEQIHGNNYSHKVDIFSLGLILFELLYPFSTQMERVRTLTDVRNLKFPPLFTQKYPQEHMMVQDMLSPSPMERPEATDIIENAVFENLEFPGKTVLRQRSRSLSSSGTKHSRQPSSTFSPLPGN
Description: Briefly, the rats were anesthetized by administration of equithesin (0.3 ml/100 g), comprising 2.12% (w/v) MgSO4, 10% (v/v) ethanol, 39.1% (v/v) propyleneglycol, 0.98% (w/v) sodium pentobarbital, and 4.2% (w/v) chloral hydrate. They were restrained in a stereotactic frame (Steolting Europe, Dublin-Ireland) and stainless steel guide cannulae (23-gauge) were bilaterally implanted into the insular cortex, angled at (with reference to bregma), anteroposterior=+1.2 mm, lateral±5.5 mm, and ventral 5.0 mm (1 mm ahead of injecting cannula). Two skull screws were inserted into the skull, and acrylic dental cement was applied to secure the cannulae in position. A 28 gauge stylus was inserted into each guide cannula to prevent clogging. The rats were allowed a week in individual cages to recover from the surgery, before the experimental manipulation. PERK inhibitor GSK2606414 (Axten et al., 2012) was dissolved in DMSO and further diluted in saline to a final DMSO concentration of 0.5%. A total of 1 μl of 100 nM GSK2606414 or vehicle was infused bilaterally. For microinfusion, the stylus was removed from the guide cannula and a 28 gauge injection cannula was carefully inserted, to extend 1.0 mm beyond the tip of the guide cannula. The injection cannula was connected via PE20 tubing to a Hamilton syringe (Hamilton) driven by a CMA/100 microinjection pump (Carnegie Medicine), to provide an injection rate of 1 μl/min. After 1 min of infusion, the injection cannula was kept in the guide cannula for an additional minute to minimize dragging of infused solutes along the injection tract. Locations of cannula were verified in 30 μm coronal sections.
Aversion to the novel taste, 0.3% NaCl was measured as described below.

[4] = 100 nM bilateral infusion to CA1 50 min prior to acquisition, 48 h after conditioning, vs vehicle

Cn1cc(-c2ccc3c(c2)CCN3C(=O)Cc2cccc(C(F)(F)F)c2)c2c(N)ncnc21 [GSK2606414, 7-methyl-5-(1-{[3-(trifluoromethyl)phenyl]acetyl}-2,3-dihydro-1H-indol-5-yl)-7H-pyrrolo[2,3-d]pyrimidin-4-amine]
p-eIF2α levels (p-eIF2α): significant reduction | freezing during tone presentation (tone memory) (PERK [1]; [4]): enhanced freezing | freezing in the trace interval following the tone (trace memory) (PERK [1]; [4]): enhanced freezing | context memory (freezing) (PERK [1]; 100 nM bilateral infusion to CA1, 24 h after conditioning, vs vehicle): not altered | extinction (cue and trace) (PERK [1]; 100 nM infusion to CA1 at the time of conditioning): no effect | total PERK levels (PERK [2]): no effect | aversion index (CTA memory) (PERK [3]; 0.3% NaCl + 0.075 M LiCl i.p., 1 μl 100 nM into IC 20 min prior to novel taste, n=8): 72%±3.5 | extinction of CTA (PERK [3]; single injection of 100 nM into IC during CTA): not affected | total drinking volumes (PERK [3]; vs vehicle group throughout the behavioral procedure, data not shown): similar
